According to US7049437B2, “Synthetic process and crystal form of condensed imidazopyridine derivatives” (Shionogi & Co., Ltd., priority 2000, dated 2006):
Structures can show the parent of a compound that is named as a salt.

Legend:
[1] = Stability to light (fluorescent lamp exposure; appearance and HPLC remaining rate); format: physicochemical; details: for appearance / remaining rate (%) / appearance change under light exposure: phosphate monohydrate; for remaining rate (%): HPLC content vs reference kept at −20° C.; for appearance change under light exposure: summary of Table 2
Description: In the following Experiments, contents of Compound (I) were determined by HPLC under the following conditions. • Device: WATERS 510, 481, 712 WISP, 741, FD20A or WATERS 510, 486, 712 WISP, 741, FD20A • Column: YMC-packed column AM-302 S-5 120A ODS (4.6 mm φ×150 mm) • Column temperature: room temperature • Mobile phase: methanol/water/TFA=200/800/1 (v/v) • Flow rate: 1.0 ml/min • Wave length: 230 nm • Concentration: 5–85 μg/ml • Injection Volume: 15 μl
After samples were prepared in the same manner of Experiment 1 and sealed, they were kept under 1800 Lux exposure (16 hours exposure per day of a fluorescent lamp, 28800 Lux*hr/day) or under 10000 Lux exposure (continuous exposure of a fluorescent lamp, 240000 Lux*hr/day, average temperature 30±3° C.). As a standard reference sample, each of crystals was put in a sealed container and kept at −20° C. The content of crystals were determined by the absolute calibration curve method using HPLC under the above conditions.

[2] = Stability to heat (crystals kept sealed at 40° C., relative humidity 75%); format: physicochemical; details: relative humidity of 75%, 6 months, sealed glass container, phosphate monohydrate
Description: Prism crystals and needle crystals of Compound (Ia) were used for samples. About 25 mg of each crystal was put in a small glass container with polyethylene cap. Containers were capped, sealed with PARAFILM and kept at 40° C., relative humidity of 75% for 6 months.

| Structure (SMILES) | melting point [°C] | appearance ([1]; 1800 Lux (16 hours exposure per day), 1 month) | remaining rate (%) ([1]; 1800 Lux, 1 month) | remaining rate (%) ([1]; 1800 Lux, 2 months) | remaining rate (%) ([1]; 1800 Lux, 3 months) | remaining rate (%) ([1]; 1800 Lux, 4 months) | appearance ([1]; 10000 Lux (continuous exposure, 30±3° C.), 1 week) | appearance ([1]; 10000 Lux (continuous exposure, 30±3° C.), 3 weeks) | remaining rate (%) ([1]; 10000 Lux, 1 week) | remaining rate (%) ([1]; 10000 Lux, 2 weeks) | remaining rate (%) ([1]; 10000 Lux, 3 weeks) | remaining rate under light exposure ([1]; after 3 months) | appearance change under light exposure [1] | appearance transition [2] | appearance ([1]; 1800 Lux (16 hours exposure per day), 3 months) | appearance ([1]; 10000 Lux (continuous exposure, 30±3° C.), 2 weeks) |
| --- | --- | --- | --- | --- | --- | --- | --- | --- | --- | --- | --- | --- | --- | --- | --- | --- |
| c1cc(-c2nc3c4c(ncc3[nH]2)CCOC4)no1 (as salt: phosphate) (hydrate or solvate) [Needle crystals, 2-(3-isoxazolyl)-3,6,7,9-tetrahydroimidazo[4,5-d]pyrano[4,3-b]pyridine phosphate monohydrate] | 234 to 236 | – | – | – | – | – | – | – | – | – | – | – | – | – | – | – |
| c1cc(-c2nc3c4c(ncc3[nH]2)CCOC4)no1 (hydrate or solvate) [Example 1, 2-(3-isoxazolyl)-3,6,7,9-tetrahydroimidazo[4,5-d]pyrano[4,3-b]pyridine] | > 300 | – | – | – | – | – | – | – | – | – | – | – | – | – | – | – |
| c1cc(-c2nc3c4c(ncc3[nH]2)CCOC4)no1 [Needle crystals, 2-(3-isoxazolyl)-3,6,7,9-tetrahydroimidazo[4,5-d]pyrano[4,3-b]pyridine phosphate monohydrate] | – | ± or + | 98.6 | 98.3 | 96.9 | 97.0 | ± or + | + or ++ | 99.3 | 98.0 | 97.4 | decreased | changed the color to yellow | changed its color to pale yellow | – | – |
| c1cc(-c2nc3c4c(ncc3[nH]2)CCOC4)no1 [Prism crystals, 2-(3-isoxazolyl)-3,6,7,9-tetrahydroimidazo[4,5-d]pyrano[4,3-b]pyridine phosphate monohydrate] | – | – | 100.0 | 99.9 | 100.1 | 100.1 | – | – | 99.5 | 99.7 | 99.2 | – | scarcely changed appearance | not observed appearance transition | − or ± | ± or + |
